Assay results reported in patent US20230234906A1, “Use of 2-pentanone and specific receptor thereof in manufacture of products regulating cell functions” (Taihe Hospital, Hubei University of Medicine, priority 2022, published 2023).

Tests used:
[1] = Verification of the arrival of 2-pentanone in cerebrospinal fluid (HPLC-MS of blood and cerebrospinal fluid after inhalation); assay type: in vivo, rats
Protocol: The specific method for detecting the arrival of 2-pentanone in cerebrospinal fluid in this test example included the following: rats were given 2-pentanone for 3 min, then blood and cerebrospinal fluid were drawn, immediately sealed and centrifuged at high speed to pellet red blood cells. The obtained cerebrospinal fluid and blood samples were subjected to HPLC-MS detection. Prior to detection, 100 μL of samples was taken and added with 400 μL of acetonitrile. The protein was separated by vortex and centrifuged at 14000 rpm for 10 min, and 100 μL of supernatant was used for HPLC-MS detection. […] It was confirmed by high performance liquid chromatography-mass spectrometry (HPLC-MS) that 2-pentanone could reach cerebrospinal fluid through blood rapidly (3 min) after inhaled by animals, and the concentration in cerebrospinal fluid decreased rapidly within 3-5 min after the inhalation was stopped.

[2] = biological target: T1, specific receptor Or35a and the specific receptor Or83b (Drosophila melanogaster, UniProt Q9V3Q2+Q9VNB5); assay: Calcium imaging experiment in mouse brain slices expressing the specific receptor of 2-pentanone; assay type: cell-based; details: addition of 2-pentanone; 150 μm brain slices of C57 mice injected with Or35a/Or83b overexpression virus and calcium imaging virus; confocal microscope; FIG. 4A
T1 construct: P2A peptide (self-cleaving; remnant stays on the C-terminus of Or35a) (C); remnant stays on the C-terminus of Or83b) (C); expressed in transfected cells; acute brain slices
T1 sequence (Q9V3Q2 1-409): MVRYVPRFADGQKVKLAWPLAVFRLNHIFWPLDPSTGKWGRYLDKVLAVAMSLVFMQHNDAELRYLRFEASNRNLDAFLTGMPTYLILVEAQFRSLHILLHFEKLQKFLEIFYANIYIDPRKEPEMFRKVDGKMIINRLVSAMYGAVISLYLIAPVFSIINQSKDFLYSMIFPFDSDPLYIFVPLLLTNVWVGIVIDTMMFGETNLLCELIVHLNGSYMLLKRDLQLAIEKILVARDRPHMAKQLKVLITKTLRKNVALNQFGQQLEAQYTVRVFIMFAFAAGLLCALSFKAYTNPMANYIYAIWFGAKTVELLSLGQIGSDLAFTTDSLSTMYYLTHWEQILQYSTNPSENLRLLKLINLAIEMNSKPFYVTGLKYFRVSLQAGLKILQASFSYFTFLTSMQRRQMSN
T1 sequence (Q9VNB5 1-486): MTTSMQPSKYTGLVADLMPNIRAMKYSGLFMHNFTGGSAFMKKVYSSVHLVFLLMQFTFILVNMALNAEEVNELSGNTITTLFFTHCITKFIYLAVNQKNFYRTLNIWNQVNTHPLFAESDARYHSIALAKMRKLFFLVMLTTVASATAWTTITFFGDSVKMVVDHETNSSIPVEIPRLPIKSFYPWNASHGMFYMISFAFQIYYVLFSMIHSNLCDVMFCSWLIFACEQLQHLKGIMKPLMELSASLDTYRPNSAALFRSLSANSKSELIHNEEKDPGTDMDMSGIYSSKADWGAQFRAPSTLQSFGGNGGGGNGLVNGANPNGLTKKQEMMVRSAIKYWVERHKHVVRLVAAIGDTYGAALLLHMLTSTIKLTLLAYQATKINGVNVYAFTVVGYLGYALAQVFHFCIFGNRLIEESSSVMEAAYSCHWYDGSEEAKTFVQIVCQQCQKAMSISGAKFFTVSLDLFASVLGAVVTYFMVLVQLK
Protocol: 1. Calcium imaging experiment: Adult C57 mice were anesthetized, fixed on a stereotaxic apparatus, and operated to expose the brain surface of the mice (1.5 mm behind the bregma, 1 mm aside, and injection depth of 2 mm). The overexpression virus (1 μl) constructed in Example 1 and the calcium imaging virus (0.5 μl) were simultaneously injected into the mouse brain using a microinjector. After 2 weeks of feeding, the brains of mice were removed. The brain tissues near the injection site were cut into 150 μm tissue slices using a vibrating microtome and placed in artificial cerebrospinal fluid with a mixture of 5% CO2 and 95% O2, and calcium imaging experiment was performed using a confocal microscope.

[3] = biological target: T1, specific receptor Or35a and the specific receptor Or83b; assay: Patch clamp experiment (whole-cell recordings) in neurons of mouse brain slices expressing the specific receptor of 2-pentanone; assay type: cell-based; details: addition of 2-pentanone, 300 μm brain slices of C57 mice injected with Or35a/Or83b overexpression virus, FIG. 4B
Protocol: 2. Patch clamp experiment: Adult C57 mice were anesthetized, fixed on a stereotaxic apparatus, and operated to expose the brain surface of the mice (1.5 mm behind the bregma, 1 mm aside, and injection depth of 2 mm). The overexpression virus (1 μl) constructed in Example 1 was injected into the mouse brain using a microinjector. After 2 weeks of feeding, the brains of mice were removed. The brain tissues at and near the injection site were cut into 300 μm tissue slices using a vibrating microtome and placed in artificial cerebrospinal fluid with a mixture of 5% CO2 and 95% 02, and after 1 h of incubation, the patch clamp experiment was performed. Using an Axon 700B amplifier, under infrared visualization, neurons with smooth surfaces and clear contours were selected for sealing, and whole-cell recordings were performed.

Q: What does the source list for CCCC(C)=O [2-pentanone]?
A: time to reach cerebrospinal fluid through blood after inhalation ([1]; rats given 2-pentanone for 3 min by inhalation, HPLC-MS of cerebrospinal fluid): 3 min; time within which the concentration in cerebrospinal fluid decreased rapidly after the inhalation was stopped ([1]; rats, after inhalation was stopped, HPLC-MS): 3 to 5 min; intracellular calcium ion concentration [2]: significantly increased; neuronal firing rate [3]: significantly increased
